Reference: patent US4661510A, “α-allenic-α-amino acids as enzyme inhibitors” (priority 1985, dated 1987)

What was measured:
[1] = molecular target: T1, bacterial tyrosine decarboxylase from Streptococcus faecallis (Enterococcus faecalis, UniProt Q838D6); test: Time dependent inactivation of tyrosine decarboxylase; type: biochemical; conditions: Streptococcus faecallis enzyme
T1 construct: purchased from Sigma Chemical Co. as crude extracts; purchased Sigma Chemical Co; host or cells: Streptococcus faecalis, crude extract
T1 sequence (Q838D6 1-620): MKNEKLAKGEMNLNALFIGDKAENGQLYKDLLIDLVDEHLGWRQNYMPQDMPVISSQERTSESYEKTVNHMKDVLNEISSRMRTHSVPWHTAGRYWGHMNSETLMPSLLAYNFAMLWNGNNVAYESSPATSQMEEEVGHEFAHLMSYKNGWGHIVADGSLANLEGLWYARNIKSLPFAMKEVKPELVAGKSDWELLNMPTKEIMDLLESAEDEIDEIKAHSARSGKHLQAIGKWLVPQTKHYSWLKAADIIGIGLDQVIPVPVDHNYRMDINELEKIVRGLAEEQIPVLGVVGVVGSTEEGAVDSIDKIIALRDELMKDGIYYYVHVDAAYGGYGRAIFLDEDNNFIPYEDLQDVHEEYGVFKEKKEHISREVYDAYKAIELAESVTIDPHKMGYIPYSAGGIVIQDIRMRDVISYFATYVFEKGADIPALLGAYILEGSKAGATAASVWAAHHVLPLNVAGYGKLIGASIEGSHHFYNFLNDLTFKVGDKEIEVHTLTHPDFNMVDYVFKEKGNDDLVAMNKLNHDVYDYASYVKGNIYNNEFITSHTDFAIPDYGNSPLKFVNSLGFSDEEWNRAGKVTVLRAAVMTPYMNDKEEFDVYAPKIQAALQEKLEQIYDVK
Text: (§1) Mammalian DOPA decarboxylase was isolated and purified from porcine kidney by the procedure of Borri-Voltatorni et al [Eur. J. Biochem., 93, 181 (1979)] with modifications as introduced by Rudd and Thanassi [Biochemistry, 20, 7469 (1981)]. Bacterial L-phenylalanine and L-tyrosine decarboxylases ex Streptococcus faecallis were purchased from Sigma Chemical Co. as crude extracts and studied without further purification.
(§2) The time dependent inactivation of bacterial aromatic amino acid decarboxylases with 200-1000 micromolar inhibitor, e.g. 2-amino-2-(4-hydroxybenzyl)-penta-3,4-dienoic acid or 2-amino-2-benzylpenta-3,4-dienoic acid, was monitored at pH 5.5 and 37° C. Residual activity of tyrosine decarboxylase ex Streptococcus faecallis was determined by measurement of p-tyramine production at pH 5.5 and 37° C. p-Tyramine was separated by HPLC and quantified by electrochemical oxidation at +0.7 volts.

[2] = molecular target: T2, phenylalanine decarboxylase from Streptococcus faecallis (Enterococcus faecalis, UniProt Q838D6); test: Time dependent inactivation of phenylalanine decarboxylase; type: biochemical; conditions: Streptococcus faecallis enzyme
T2 construct: L-phenylalanine substrate, phenylethylamine by GC
T2 sequence (Q838D6 1-620): T1 sequence (Q838D6 1-620)
Text: as §1, §2
Residual activity of L-phenylalanine decarboxylase ex Streptococcus faecallis with L-phenylalanine (2 mM) as substrate was meaasured by gas chromatographic analysis of phenylethylamine production. Direct injection of enzymatic reaction mixture (1-5 microliters) onto a standard glass column packed with 10% Apiezon L on Chromosorb 80/100 deactivated with 2% KOH allowed separation of aromatic amine from the reaction mixture. FID detection quantified the rate of product formation.

[3] = molecular target: T3, mammalian DOPA decarboxylase from porcine kidney (Sus scrofa, UniProt P80041); test: Time dependent inactivation of DOPA decarboxylase; type: biochemical; conditions: porcine kidney enzyme
T3 construct: isolated and purified from porcine kidney; from tissue; host or cells: porcine kidney
T3 sequence (P80041 1-486): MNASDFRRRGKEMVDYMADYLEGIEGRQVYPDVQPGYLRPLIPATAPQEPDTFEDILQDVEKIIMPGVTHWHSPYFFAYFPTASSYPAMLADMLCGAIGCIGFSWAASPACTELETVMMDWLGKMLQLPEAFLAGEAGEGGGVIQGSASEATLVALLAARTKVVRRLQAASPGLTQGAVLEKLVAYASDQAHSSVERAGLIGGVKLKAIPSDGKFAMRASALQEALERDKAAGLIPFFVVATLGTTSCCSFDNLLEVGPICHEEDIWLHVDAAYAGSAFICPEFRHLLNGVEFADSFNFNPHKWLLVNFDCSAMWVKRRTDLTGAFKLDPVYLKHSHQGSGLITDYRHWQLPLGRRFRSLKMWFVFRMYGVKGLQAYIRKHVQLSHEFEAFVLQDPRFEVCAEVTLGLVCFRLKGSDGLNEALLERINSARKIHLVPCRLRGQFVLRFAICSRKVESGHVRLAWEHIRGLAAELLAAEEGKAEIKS
Text: as §1
Time dependent inactivation of mammalian DOPA decarboxylase was monitored by incubation of enzyme with 4 to 100 molar equivalent excess of 2-amino-2-(3,4-dihydroxybenzyl)penta-3,4-dienoic acid at pH 6.8 and 37° C. At appropriate time intervals, aliquots of the mixture were withdrawn, diluted 30-fold into excess L-DOPA (2 mM) and residual DOPA decarboxylase activity determined.
DOPA decarboxylase activity was routinely measured by liquid chromatography and electrochemical detection of catecholamine products. DOPA decarboxylase (1-5 micrograms, 1-20 units) was incubated with L-DOPA (2000 micromolar, 150 microliters) and PLP (10 micromolar) in 0.1M phosphate at pH 6.8 and 37° C. After 1-10 minutes, the reaction was quenched with citric acid (2M, 25 microliters), diluted two-fold with distilled water and 10 microliter aliquots were analyzed by HPLC on a reverse phase Brownlee RP-18 column. Isocratic elution with pH 4.35 buffer [0.1M NaOAc ([…]), 0.1M citric acid (32% v/v) and methanol (15% v/v)] at a flow rate of 2.5 ml/min. afforded baseline resolution of dopamine (RT=2.8 min.) from L-DOPA (RT=1.9 min.).
Quantification of dopamine was accomplished by preoxidation of the catechol to the ortho quinone at +0.25 volts in the first analytical electrochemical cell, followed by the selective reduction of ortho quinone in the second analytical cell set at -0.25 volts. This configuration for the ESA electrochemical detector allowed highly sensitive and selective detection of catecholamines (less than 10 picomoles/injection).

[4] = molecular target: T4, rat prostate ornithine decarboxylase (Rattus norvegicus, UniProt P09057); conditions: Metcalf et al 1979; cited from earlier work
T4 construct: host or cells: rat prostate
T4 sequence (P09057 1-461): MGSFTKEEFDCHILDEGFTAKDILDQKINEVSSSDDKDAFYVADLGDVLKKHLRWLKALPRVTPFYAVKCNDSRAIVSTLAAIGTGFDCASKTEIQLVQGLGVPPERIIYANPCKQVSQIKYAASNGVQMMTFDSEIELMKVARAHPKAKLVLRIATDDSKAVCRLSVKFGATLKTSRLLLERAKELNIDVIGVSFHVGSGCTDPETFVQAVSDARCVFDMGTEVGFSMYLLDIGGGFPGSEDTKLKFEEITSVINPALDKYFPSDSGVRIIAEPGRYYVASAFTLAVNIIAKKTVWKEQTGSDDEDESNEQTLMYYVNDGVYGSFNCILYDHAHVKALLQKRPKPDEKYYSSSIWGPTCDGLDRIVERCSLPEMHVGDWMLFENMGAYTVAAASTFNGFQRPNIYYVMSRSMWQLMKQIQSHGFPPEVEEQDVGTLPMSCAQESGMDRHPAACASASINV

[5] = molecular target: T5, rat liver ornithine decarboxylase (Rattus norvegicus, UniProt P09057); conditions: Metcalf et al 1979; cited from earlier work
T5 construct: host or cells: rat liver
T5 sequence (P09057 1-461): T4 sequence (P09057 1-461)

[6] = molecular target: T6, aromatic amino acid decarboxylase (Sus scrofa, UniProt P80041); conditions: Maycock et al; cited from earlier work
T6 sequence (P80041 1-486): T3 sequence (P80041 1-486)

[7] = test system: mammalian glutamate decarboxylase; conditions: Jung et al 1978; cited from earlier work
[8] = molecular target: bacterial glutamate decarboxylase (Escherichia coli, UniProt P69910); conditions: Jung et al 1978; cited from earlier work
Sequence of bacterial glutamate decarboxylase (P69910 whole entry): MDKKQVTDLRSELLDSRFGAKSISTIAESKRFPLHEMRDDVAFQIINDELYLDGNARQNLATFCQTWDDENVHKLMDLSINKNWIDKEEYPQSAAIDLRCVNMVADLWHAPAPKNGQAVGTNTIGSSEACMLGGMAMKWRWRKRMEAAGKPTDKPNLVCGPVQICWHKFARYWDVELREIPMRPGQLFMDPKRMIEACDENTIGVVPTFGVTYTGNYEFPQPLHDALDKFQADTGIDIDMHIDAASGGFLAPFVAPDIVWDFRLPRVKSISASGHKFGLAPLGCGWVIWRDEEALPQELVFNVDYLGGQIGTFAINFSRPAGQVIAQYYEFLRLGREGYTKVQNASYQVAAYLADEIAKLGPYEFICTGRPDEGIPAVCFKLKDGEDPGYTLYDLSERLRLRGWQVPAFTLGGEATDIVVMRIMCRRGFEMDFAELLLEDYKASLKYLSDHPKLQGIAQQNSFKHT

[9] = test system: Male Sim:(S.D.)fBR rats; test: In vivo potentiation of L-DOPA induced behaviors; design: species or system rat; conditions: for Mean Behavior Score at 60 min.: score scale 0-6, before 200 mg/kg L-DOPA i.p.
Method: Male Sim:(S.D.)fBR rats weighing 180-335 g were used for these experiments. Groups of 5 rats were individually housed and received water, or various doses of either 2-amino-2-(3-hydroxybenzyl)penta-3,4-dienoic acid or 2-amino-2-(3,4-dihydroxybenzyl)penta-3,4-dienoic acid 30 l minutes before 200 mg/kg of L-DOPA, i.p. Beginning 15 minutes later, behavioral observations were made at 15 minutes intervals for 2 hours. Behavoir was scored as follows:
3=Alert with intermittent sniffing

[10] = molecular target: T7, ornithine decarboxylase (Homo sapiens, UniProt P11926); conditions: Relyea and Rando 1975; cited from earlier work
T7 sequence (P11926 1-461): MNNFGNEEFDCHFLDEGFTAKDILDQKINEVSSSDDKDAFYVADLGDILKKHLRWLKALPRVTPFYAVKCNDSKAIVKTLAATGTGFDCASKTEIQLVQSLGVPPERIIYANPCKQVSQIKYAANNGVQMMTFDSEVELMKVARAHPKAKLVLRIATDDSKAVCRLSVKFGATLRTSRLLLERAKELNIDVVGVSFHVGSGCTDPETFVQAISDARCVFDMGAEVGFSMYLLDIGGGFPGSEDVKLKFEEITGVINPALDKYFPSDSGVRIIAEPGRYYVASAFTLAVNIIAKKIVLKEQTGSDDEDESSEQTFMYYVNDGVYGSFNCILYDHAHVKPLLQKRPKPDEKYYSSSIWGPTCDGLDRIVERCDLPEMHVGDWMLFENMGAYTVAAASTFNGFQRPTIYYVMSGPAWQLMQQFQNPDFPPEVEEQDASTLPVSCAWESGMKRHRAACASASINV

[11] = test system: rat brain glutamate decarboxylase; conditions: Crystal et al 1977; cited from earlier work

Compound	irreversible inactivation of tyrosine decarboxylase [1]	irreversible inactivation of phenylalanine decarboxylase [2]	irreversible inactivation of DOPA decarboxylase [3]	also measured
CC=C=CC(N)(Cc1ccccc1)C(=O)O (centres unmarked) [2-amino-2-benzylhexa-3,4-dienoic acid]	irreversible inactivators	irreversible inactivators	irreversible inactivators	–
C#CC(N)CCCN (single isomer, unassigned; (-)) [(-)-5-hexyne-1,4-diamine]	–	–	–	inhibition of ornithine decarboxylase [4]: potent time-dependent inhibitor; inhibition of ornithine decarboxylase [5]: potent time-dependent inhibitor
C=CC(N)Cc1ccc(O)c(O)c1 (stereo not drawn) [α-vinyl-dopamine]	–	–	–	inactivation of aromatic amino acid decarboxylase [6]: slow-time dependent inactivation
C#C[C@H](N)CCC(=O)O [(R) 4-amino-hex-5-ynoic acid]	–	–	–	inhibition of glutamate decarboxylase [7]: inhibit; inhibition of glutamate decarboxylase [8]: inhibit
C=C=CC(N)(Cc1ccccc1)C(=O)O (centres unmarked) [2-amino-2-benzylpenta-3,4-dienoic acid]	irreversible inactivators	irreversible inactivators	irreversible inactivators	–
C=C=CC(N)(Cc1ccc(O)c(O)c1)C(=O)O (centres unmarked) [2-amino-2-(3,4-dihydroxybenzyl)penta-3,4-dienoic acid]	irreversible inactivators	irreversible inactivators	irreversible inactivators	potentiation of the behaviors induced by L-DOPA ([9]; 30 mg/kg i.p. or s.c., 30 minutes before 200 mg/kg L-DOPA i.p.): active; Mean Behavior Score at 60 min. ([9]; 30 mg/kg i.p.): 4.0; Mean Behavior Score at 60 min. ([9]; 30 mg/kg s.c.): 4.0; potentiation of DOPA behaviors ([9]; 3 to 30 mg/kg i.p. or 30 to 150 mg/kg s.c.): potentiate DOPA behaviors
NCC=CC(N)C(=O)O (stereo not drawn) [β, γ-dehydroornithine]	–	–	–	inhibition of ornithine decarboxylase [10]: very potent competitive inhibitor
C=C=CC(N)(Cc1ccc(O)cc1)C(=O)O (centres unmarked) [2-amino-2-(4-hydroxybenzyl)penta-3,4-dienoic acid]	irreversible inactivators	irreversible inactivators	irreversible inactivators	–
CC(N)(/C=C/C(=O)O)C(=O)O (stereo not drawn) [α-methyl-trans-dehydroglutamic acid]	–	–	–	inhibition of glutamate decarboxylase [11]: irreversibly inhibits
CC=C=CC(N)(Cc1cccc(O)c1)C(=O)O (centres unmarked) [2-amino-2-(3-hydroxybenzyl)hexa-3,4-dienoic acid]	irreversible inactivators	irreversible inactivators	irreversible inactivators	–
